The values that follow come from article PMC8551951 (Biophysical Reviews, 2021).

Data set [1] deals with thermal and mechanical sensitivities; RS and NOx levels. It is filed as in vivo, Swiss mice. Particulars: 1 mg kg-1, intragastric route.
Data set [2] concerns C. neoformans (ATCC H99). The data set can be described thus: microbe, parasite or virus in culture. Particulars: Cryptococcus neoformans. Format: cell-based.
Data set [3] concerns the target α-synuclein (Homo sapiens, UniProt P37840). It is filed as cell-based, Saccharomyces cerevisiae. The note with it: 0.1 mM, without fermentation.
Data set [4] relates to Drosophila melanogaster. Particulars: 48 hours.
For data set [5] the following is noted: 2 mg/ml.
The subject of data set [6] is MV released from growth-plate femurs chondrocytes. Format: biochemical, chicken.
The subject of data set [7] is learning and memory behavior. It is filed as in vivo, Swiss mice. Particulars: 10mg/kg, intragastrically.
Data set [8] deals with TRPV1 channel heterologously expressed in HEK293 cells (Homo sapiens, UniProt Q8NER1). The data set can be described thus: cell-based. Particulars: HEK293, read-out: % inhibition of capsaicin-induced TRPV1 currents.
Data set [9] deals with glycated human erythrocyte. Format: cell-based.
For data set [10], the system named is K562. Format: cell-based.
For data set [11], the target named is dihydroorotate dehydrogenase from Schistosoma mansoni (SmDHODH) (Schistosoma mansoni, UniProt G4VFD7).
Data set [12] concerns the target gill V(H+)-ATPase. It is filed as biochemical, Macrobrachium amazonicum. The note with it: read-out: constant enzyme inhibitor, 25 °C.
The test system of data set [13] is CE-AρBza serine proteases. It is filed as biochemical, Canavalia ensiformis.
Data set [14] concerns Leishmania braziliensis old yellow enzyme (LbOYE). Format: biochemical.
The test system of data set [15] is K562 cell line.
Data set [16] relates to S. saprophyticus. It is filed as cell-based.
Data set [17] addresses Ca2+-dependent BK channel (Homo sapiens, UniProt Q12791). It is filed as cell-based.
In data set [18] the test system is IGR39 cells. It is filed as cell-based.
Data set [19] concerns oral streptococci biofilm. It is filed as cell-based, Streptococcus. The note with it: all species.
Data set [20] has as its target rat serum albumin (RSA) (Rattus norvegicus, UniProt P02770). Format: binding. The note with it: interaction density function method; two cooperative sites.
For data set [21], the system named is paw edema. The note with it: in vivo.
The subject of data set [22] is inflammation, nociception and oxidative stress. The note with it: mouse, in vivo.
The test system of data set [23] is K562 cells. It is filed as cell-based.
Data set [24] has as its system LUCENA cells. Format: cell-based.

Values after ≈ are worked out from the molar mass of the structure shown. Like-named read-outs stand apart in the source and are kept apart here.

Sequence of TRPV1 channel heterologously expressed in HEK293 cells (Q8NER1 whole entry): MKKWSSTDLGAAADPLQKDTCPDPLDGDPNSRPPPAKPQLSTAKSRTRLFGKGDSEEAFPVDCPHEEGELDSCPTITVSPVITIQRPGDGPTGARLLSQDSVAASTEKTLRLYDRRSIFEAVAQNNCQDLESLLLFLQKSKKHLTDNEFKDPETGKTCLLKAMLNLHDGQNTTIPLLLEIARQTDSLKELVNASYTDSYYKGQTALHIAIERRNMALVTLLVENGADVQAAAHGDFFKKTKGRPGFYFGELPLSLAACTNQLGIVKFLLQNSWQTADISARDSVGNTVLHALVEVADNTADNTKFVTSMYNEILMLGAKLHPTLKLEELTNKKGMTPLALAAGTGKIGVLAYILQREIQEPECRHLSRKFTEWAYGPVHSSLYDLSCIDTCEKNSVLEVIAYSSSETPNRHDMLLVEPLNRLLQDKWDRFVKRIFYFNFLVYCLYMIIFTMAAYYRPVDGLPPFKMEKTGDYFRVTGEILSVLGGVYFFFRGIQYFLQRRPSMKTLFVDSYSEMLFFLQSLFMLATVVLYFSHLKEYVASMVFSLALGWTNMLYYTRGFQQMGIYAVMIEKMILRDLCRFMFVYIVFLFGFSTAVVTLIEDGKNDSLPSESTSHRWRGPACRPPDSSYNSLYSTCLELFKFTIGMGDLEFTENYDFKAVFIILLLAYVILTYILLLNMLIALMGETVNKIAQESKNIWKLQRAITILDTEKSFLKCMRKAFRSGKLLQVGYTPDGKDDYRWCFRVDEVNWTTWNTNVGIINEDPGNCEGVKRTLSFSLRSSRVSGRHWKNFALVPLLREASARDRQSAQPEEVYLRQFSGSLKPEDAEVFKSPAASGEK
Sequence of Ca2+-dependent BK channel (Q12791 whole entry): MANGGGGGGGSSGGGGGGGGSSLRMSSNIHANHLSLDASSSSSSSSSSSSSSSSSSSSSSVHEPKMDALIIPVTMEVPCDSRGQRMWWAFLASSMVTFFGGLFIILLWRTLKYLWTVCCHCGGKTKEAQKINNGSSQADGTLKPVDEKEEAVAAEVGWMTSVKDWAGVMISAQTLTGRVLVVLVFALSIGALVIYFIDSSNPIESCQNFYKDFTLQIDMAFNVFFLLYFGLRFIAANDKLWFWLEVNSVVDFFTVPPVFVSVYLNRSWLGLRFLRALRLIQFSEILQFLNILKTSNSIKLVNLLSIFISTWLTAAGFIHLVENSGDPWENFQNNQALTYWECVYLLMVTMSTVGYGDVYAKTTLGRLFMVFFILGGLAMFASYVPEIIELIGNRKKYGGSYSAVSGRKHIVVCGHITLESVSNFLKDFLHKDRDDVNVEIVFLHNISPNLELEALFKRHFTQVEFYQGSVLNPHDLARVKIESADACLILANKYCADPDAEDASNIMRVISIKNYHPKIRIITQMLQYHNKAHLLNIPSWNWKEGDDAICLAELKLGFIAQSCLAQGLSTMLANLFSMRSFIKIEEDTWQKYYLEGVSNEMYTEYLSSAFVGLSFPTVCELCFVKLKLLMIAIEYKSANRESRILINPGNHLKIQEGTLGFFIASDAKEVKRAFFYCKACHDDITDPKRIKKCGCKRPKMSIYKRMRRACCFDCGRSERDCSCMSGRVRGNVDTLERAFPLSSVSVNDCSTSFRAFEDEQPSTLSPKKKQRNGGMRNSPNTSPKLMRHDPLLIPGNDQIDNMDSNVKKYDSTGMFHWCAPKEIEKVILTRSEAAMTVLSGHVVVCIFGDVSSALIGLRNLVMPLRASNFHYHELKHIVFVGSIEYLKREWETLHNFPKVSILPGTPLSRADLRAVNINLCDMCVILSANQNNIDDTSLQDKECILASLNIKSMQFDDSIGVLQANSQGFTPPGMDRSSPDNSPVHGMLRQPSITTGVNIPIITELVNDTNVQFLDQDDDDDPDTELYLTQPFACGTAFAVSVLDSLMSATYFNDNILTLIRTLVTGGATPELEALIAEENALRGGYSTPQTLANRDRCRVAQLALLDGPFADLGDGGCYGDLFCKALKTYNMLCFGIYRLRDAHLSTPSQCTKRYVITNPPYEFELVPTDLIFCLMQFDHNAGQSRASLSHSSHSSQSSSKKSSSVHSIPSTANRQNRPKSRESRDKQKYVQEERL
Sequence of dihydroorotate dehydrogenase from Schistosoma mansoni (SmDHODH) (G4VFD7 23-379 limits assumed): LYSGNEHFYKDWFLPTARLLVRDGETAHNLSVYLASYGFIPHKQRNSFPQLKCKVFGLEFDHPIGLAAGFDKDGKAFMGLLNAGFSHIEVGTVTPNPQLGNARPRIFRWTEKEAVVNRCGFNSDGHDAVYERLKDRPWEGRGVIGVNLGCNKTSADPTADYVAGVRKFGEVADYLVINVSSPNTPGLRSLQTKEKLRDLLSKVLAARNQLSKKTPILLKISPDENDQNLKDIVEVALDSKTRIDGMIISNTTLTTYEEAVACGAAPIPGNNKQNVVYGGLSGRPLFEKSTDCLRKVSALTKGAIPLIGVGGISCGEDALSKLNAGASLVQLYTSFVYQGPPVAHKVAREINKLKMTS
Sequence of rat serum albumin (RSA) (P02770 25-608): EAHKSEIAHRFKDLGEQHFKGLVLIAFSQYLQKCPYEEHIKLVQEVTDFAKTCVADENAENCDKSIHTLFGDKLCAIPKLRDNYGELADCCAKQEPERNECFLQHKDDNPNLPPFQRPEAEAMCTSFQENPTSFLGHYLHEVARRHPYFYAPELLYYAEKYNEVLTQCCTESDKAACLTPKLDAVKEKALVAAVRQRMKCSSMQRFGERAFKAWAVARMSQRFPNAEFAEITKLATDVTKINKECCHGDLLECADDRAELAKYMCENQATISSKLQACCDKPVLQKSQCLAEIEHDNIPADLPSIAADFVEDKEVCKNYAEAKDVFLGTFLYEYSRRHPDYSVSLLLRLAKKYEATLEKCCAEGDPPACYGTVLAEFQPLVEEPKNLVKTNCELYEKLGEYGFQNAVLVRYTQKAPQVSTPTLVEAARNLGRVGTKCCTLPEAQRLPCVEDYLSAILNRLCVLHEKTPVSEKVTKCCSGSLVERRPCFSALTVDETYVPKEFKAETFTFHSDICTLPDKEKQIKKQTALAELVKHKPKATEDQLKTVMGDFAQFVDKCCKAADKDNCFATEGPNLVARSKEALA

Take `Clc1ccc2c([Se]c3ccccc3)ccnc2c1` [4-PSQ, 7-Chloro-4-(phenylselanyl) quinoline]: the hypersensitivity result in data set [1] is “reversed hypersensitivity induced by OXA and aging”. Besides, the “RS and NOx levels” value in data set [1] (both ages) was “reduced the RS and NOx levels”.

The compound `CCCSc1ccc2nc(NC(=O)OC)[nH]c2c1` [Albendazole] came in with an MIC in data set [2] of 0.047 to 3.12 µM (≈ 0.0125 to 0.829 µg/mL).

For `O=C(/C=C/c1ccc(O)c(O)c1)OCCc1ccccc1` [CAPE, phenethyl ester of caffeic acid], the protein aggregation result in [3] was “did not inhibit”.

`COc1cc2c(c(OC)c1OC)-c1ccc(OC)c(=O)cc1[C@@H](NC(C)=O)CC2` [COL, colchicine]: in data set [4] (0.001-0.010 mg/mL), the survival rate result is reported as “did not affect the fly survival rate”. In [4], the TBARS levels result is “elevated in the 0.0025 mg/mL and 0.005 mg/mL groups”; the “reactive species (RS) levels” value was “increase in RS levels at concentrations of 0.0025 and 0.005 mg/mL”.

Regarding `CC1=C(C(=O)O)N2C(=O)[C@@H](NC(=O)[C@H](N)c3ccccc3)[C@H]2SC1` [Cephalexin], the degradation entry in [5] is on record as “highly sucesptible to degradation”.

For `c1ccc([C@H]2CN3CCSC3=N2)cc1` [Levamisole], in [6], the “effectiveness of inhibition of MV activity compared with ouabain” value is recorded as “more effective”.

`COc1ccc(Sc2ccc3nsnc3c2)cc1` [MTDZ, 5-((4-methoxyphenyl)thio)benzo[c][1,2,5]thiadiazole]: the “behavioral changes caused by SCO” value in [7] is “attenuated the behavioral changes caused by SCO”.

The term inhibition denotes the change of the read-out against control, counted positive when it falls. Take `CC(C)(O)c1ccccc1CC[C@@H](SCC1(CC(=O)O)CC1)c1cccc(/C=C/c2ccc3ccc(Cl)cc3n2)c1` [Montelukast]: in data set [8], the inhibition at 0.1 µM is 62 ± 8%.

Turning to `CO[C@@H]1[C@@H](OC(N)=O)[C@@H](O)[C@H](Oc2ccc3c(O)c(NC(=O)c4ccc(O)c(CC=C(C)C)c4)c(=O)oc3c2C)OC1(C)C` [Novobiocin], the inhibition at 0.1 µM in [8] worked out at 60 ± 7%.

`CC(C)c1cccc(C(C)C)c1O` [P, propofol]: in data set [9], the “deformability index (DI)” value is “decreases” and the “erythrocyte elastic modulus (μ)” value was “significant increase”.

With `CC(=O)O[C@H]1C[C@@H]2CC[C@@H]3[C@H](CC[C@@]4(C)[C@H]3C[C@H]([N+]3(C)CCCCC3)[C@@H]4OC(C)=O)[C@@]2(C)C[C@@H]1N1CCCCC1` [V, vecuronium], in data set [9], the “surface viscosity (η)” value is on record as “increase”.

Take `NC(=O)NC1NC(=O)NC1=O` (centres unmarked) [allantoin]: the “death caused by cisplatin” value in data set [10] is recorded as “reduction”.

For the compound `O=C1C(O)=C([C@H]2CC[C@H](c3ccc(Cl)cc3)CC2)C(=O)c2ccccc21` [atovaquone], in [11], the “inhibition of SmDHODH” value is recorded as “in the nanomolar range”.

With `CO/C1=C\C(C)=C\[C@@H](C)[C@@H](O)[C@@H](C)C/C(C)=C/C=C/[C@H](OC)[C@@H]([C@@H](C)[C@@H](O)[C@H](C)C2(O)C[C@@H](O)[C@H](C)[C@@H](C(C)C)O2)OC1=O` (some centres unmarked) [bafilomycin], the Ki in data set [12] (Grande river population) turned out to be 21.2 ± 1.3 nM; in data set [12] (Tietê river population), 35.1 ± 1.1 nM.

Take `N=C(N)c1ccccc1` [benzamidine]: the figures for the “inhibition of CE-AρBza” value in data set [13] (BTEE as substrate) and in data set [13] (L-TAME as substrate) were 100% and 77%, respectively.

As to `CC(C)c1cc2c(c(O)c1O)C[C@@]13CCCC(C)(C)[C@@H]1C[C@@H]2O3` [brussonol], the “significant inhibition of LbOYE activity” value in data set [14] is reported as “did not show significant inhibition”.

With `COC(=O)Nc1nc2ccc(Sc3ccccc3)cc2[nH]1` [fenbendazole], the MIC in [2] lay within 0.047 to 3.12 µM (≈ 0.0141 to 0.935 µg/mL).

`COC(=O)Nc1nc2cc(C(=O)c3ccc(F)cc3)ccc2[nH]1` [flubendazole] registered an MIC in [2] of 0.047 to 3.12 µM (≈ 0.0147 to 0.979 µg/mL).

Turning to `COC(=O)Nc1nc2ccc(C(=O)c3ccccc3)cc2[nH]1` [mebendazole], the MIC in [2] was in the range of 0.047 to 3.12 µM (≈ 0.0139 to 0.923 µg/mL).

Turning to `CN(C)C(=N)N=C(N)N` [metformin], the interaction with cisplatin entry in [15] is reported as “synergism”.

For `C[C@@H]1O[C@@H](O[C@H]2C[C@@H](O)[C@]3(CO)[C@H]4[C@H](O)C[C@]5(C)[C@@H](C6=CC(=O)OC6)CC[C@]5(O)[C@@H]4CC[C@]3(O)C2)[C@H](O)[C@H](O)[C@H]1O` [ouabain], in [6] (31P-NMR and colorimetric techniques), the “MV activity in the presence of inhibitor” value was approximately 95%.

As to `CN[C@H](CC(C)C)C(=O)N[C@H]1C(=O)N[C@@H](CC(N)=O)C(=O)N[C@H]2C(=O)N[C@H]3C(=O)N[C@H](C(=O)N[C@H](C(=O)O)c4cc(O)cc(O)c4-c4cc3ccc4O)[C@H](O)c3ccc(c(Cl)c3)Oc3cc2cc(c3O[C@@H]2O[C@H](CO)[C@@H](O)[C@H](O)[C@H]2O[C@H]2C[C@](C)(N)[C@H](O)[C@H](C)O2)Oc2ccc(cc2Cl)[C@H]1O` [vancomycin], in [16], the “reduction of the MIC value in combination” value came out at 4 times.

DCPIB: the currents entry in data set [17] (IGR37 cells) is given as “not in IGR37 cells”; in data set [17] (Panc1, MiaPaca2 and IGR39 cells), “dramatic increase of currents”. Besides, the “Ca2+ influx” value in data set [18] is listed as “induces a rapid Ca2+ influx”.

On to N-acetylcysteine [NAC], for which the “concentration shown to inhibit biofilm formation” value in data set [19] was 12.5 mg/mL.

Turning to Piperlongumine [PPL], the binding constants result in data set [20] is listed as “moderate binding constants”.

Consider Rhodium chloride [RhCl3], for which the paw edema result in data set [21] is recorded as “able to reduce paw edema”.

As for “Se-[(2,2-dimethyl-1,3-dioxolan-4-yl) methyl] 4-chlorobenzoselenolate [Se-DMC]”, in data set [22], the NPSH content entry is given as “No alteration” and the “RS levels in paw” value is reported as “reduced the RS levels”.

For the compound sodium selenite [Na2SeO3], the proliferation entry in data set [23] is “significant reduction”. The “mitochondrial membrane potential (JC-1)” value in data set [23] (24 hours) was “significant reduction for all concentration”; in [24] (24 hours), “only at concentrations of 100 μM and 1000 μM”. Also, the “cell viability (MTT)” value in [23] (48 hours) is “significant reduced only in 100 μM or 1000 μM”. Further, the “reduction in cell number” value in data set [24] (1000 μM, 48 hours) is listed as 66%.
